According to US10723998B2, “Application of ethyl p-methoxycinnamate and derivatives thereof in maintaining self-renewal and pluripotency of stem cells” (NORTHEAST NORMAL UNIVERSITY, priority 2015, dated 2020):

Key:
mouse teratoma cells P19 = assay: Formation of microspheres of adherently cultured stem cells; format: cell-based; conditions: 5 μg/mL, 3% fetal calf serum DMEM, 22 d, compared with control, FIG. 5
Protocol: In a super clean bench, mouse teratoma cells P19 were inoculated in a 6-well plate at a density of 1×10^4 cells/well, and DMEM culture medium containing 10% fetal calf serum was added to result in a final volume of 2 mL. The cell culture plate was gently shaken, so that the cells were uniformly distributed in the cell culture plate, and then placed in a cell incubator to be cultured. After 24 h, the old culture medium were discarded, and 3% fetal calf serum DMEM culture medium containing ethyl p-methoxycinnamate was added, so that the final concentration of ethyl p-methoxycinnamate was 5 μg/mL. The original culture medium was discarded every 24 h, and fresh DMEM culture medium containing 3% fetal calf serum was added, and the final concentration of ethyl p-methoxycinnamate therein was made to be 5 μg/mL likewise. After continuous culture of 22 d, the cells were photographed.

Oct4 mRNA = Oct4 mRNA expression by RT-PCR and agarose gel electrophoresis in P19 cells; format: cell-based, mouse; conditions: 5 μg/mL, 12 h, DMSO control, FIG. 2
Protocol: P19 cells were inoculated in a 6-well cell culture plate at a density of 2×10^5 cells/well. After 24 h, DMEM culture medium containing 3% serum were used for replacement. Ethyl p-methoxycinnamate was added to the experimental group to render its final concentration at 5 μg/mL, and a control group was treated with DMSO. After 12 h, the 6-well plate overgrown with monolayer cells was taken out from a cell incubator, and the cells were washed 3 times with pre-cooled PBS. 1 mL of a pre-cooled Trizol solution was added. After vigorous pipetting, the mixture was transferred to an EP tube and allowed to stand at room temperature for 5 min. Then 200 μL of chloroform was added to the mixture, vigorously mixed well for 15 s, and the mixture containing chloroform was allowed to stand at room temperature for 2 min and centrifuged at 12000 rpm at 4° C. for 15 min. An upper aqueous phase was pipetted into another EP tube, and an equal volume of pre-cooled isopropanol was added, and the mixture was inverted several times and allowed to stand at room temperature for 10 min to precipitate RNA. After centrifugation at 12000 rpm for 10 min, the supernatant was discarded, and to the precipitate was added 1 mL of 75% ethanol (prepared by 0.1% DEPC water) for washing, followed by centrifugation at 7500 rpm for 5 min (this step was repeated once). The supernatant was discarded. […]

Oct4 protein = Oct4 protein expression by Western Blot in P19 cells; format: cell-based, mouse; conditions: 5 μg/mL, 24 h, DMSO control, FIG. 3
Protocol: The effect of ethyl p-methoxycinnamate on Oct4 protein expression was assayed using a Western Blot method. Mouse teratoma cells P19 were inoculated in a 6-well plate. After 24 h, ethyl p-methoxycinnamate with a final concentration of 5 μg/mL was added to continue to act for another 24 h, and the control group was treated with DMSO. After the cells were washed with PBS three times, the cells were scraped with a scraper, transferred to an EP tube, and centrifuged at 4000 rpm for 5 min. The supernatant was discarded. 90 μL of lysis solution (50 mM Tris-HCl pH 7.5, 150 mM NaCl, 1 mM NaF, 0.5% NP-40, 2 μg/mL Aprotinin, and 1 mM PMSF) was added to each tube of precipitate, and the EP tube was treated on ice for 30 min and vortexed once every 5 min, so that the cells were completely lysed. After centrifugation at 12000 rpm for 10 min, the supernatant was transferred to a new EP tube, 1/3 volume of 4× protein loading buffer was added, mixed well, and boiled for 10 min, and after instantaneous centrifugation, the mixture was subjected to electrophoresis or placed at −80° C. to be frozen for standby use.
A transfer membrane buffer was prepared and precooled at 4° C. A PVDF membrane was soaked in methanol for 40 s, then taken out and soaked in the transfer membrane buffer for standby use. […]

How did the “formation of microspheres of adherently cultured stem cells” value (mouse teratoma cells P19) turn out when `CCOC(=O)C=Cc1ccc(OC)cc1` [ethyl p-methoxycinnamate] was run?
Its value is “the P19 cells can form typical microspheres”.

What about the “effect on the expression of Oct4 mRNA” value (Oct4 mRNA) of the same compound?
Its value is “can significantly promote the expression of Oct4 mRNA”.

And the “effect on the expression of Oct4 protein” value (Oct4 protein)?
The value was “can promote the expression of Oct4 protein”.
